Values of other authors, collected in patent US9974861B2, “Peptide slow-release formulations” (CAMURUS AB, priority 2007, dated 2018).

Legend:
[1] = test system: SSTRs (SSTR1-SSTR5)

| Compound | Terminal half-life (in vivo) | Selectivity for SSTR2 and SSTR5 [1] | Biological half-life (natural hormone) | Affinity of SSTR1-SSTR5 ([1]; five known types of SSTRs) |
| --- | --- | --- | --- | --- |
| C[C@@H](O)[C@@H]1NC(=O)[C@H](CCCCN)NC(=O)[C@@H](Cc2c[nH]c3ccccc23)NC(=O)[C@H](Cc2ccccc2)NC(=O)[C@@H](NC(=O)[C@H](N)Cc2ccccc2)CSSC[C@@H](C(=O)N[C@H](CO)[C@@H](C)O)NC1=O [Octreotide, D-Phe-Cys-Phe-D-Trp-Lys-Thr-Cys-Thr-ol (2-7 disulphide bridge)] | around 1.7 hours | high selectivity | – | – |
| Ala-Gly-Cys-Lys-Asn-Phe-Phe-Trp-Lys-Thr-Phe-Thr-Ser-Cys [SST-14] | – | – | 1-3 minutes | equally high affinity |
